From ChEMBL document CHEMBL4406813, “2-Amino-2,3-dihydro-1H-indene-5-carboxamide-Based Discoidin Domain Receptor 1 (DDR1) Inhibitors: Design, Synthesis, and in Vivo Antipancreatic Cancer Efficacy” (J Med Chem, 2019) come the findings set out here.

Data set [1] in a line: in vivo. As to conditions: Sprague-Dawley, rat, po, 25 mg/kg.
Data set [2] is described as follows: in vivo. The note with it: Sprague-Dawley, rat, iv, 5 mg/kg.
Data set [3] is described as follows: in vivo. The note with it: Sprague-Dawley, rat, iv, 5 mg/kg. The source holds these as a separate data set.

The Cmax is the maximum level reached in the sampled fluid or tissue. A word on the AUC(0-inf): it is total exposure, with the tail of the curve extrapolated. Low readings indicate less exposure, high ones more exposure. Consider `Cc1cn(-c2cc(NC(=O)c3ccc4c(c3)C[C@H](N(C)c3cncnc3)C4)cc(C(F)(F)F)c2)cn1`, for which the values for the Cmax in data set [1] and in data set [3] were 15400 ng/mL and 14700 ng/mL, respectively. In data set [2], this molecule had an AUC(0-inf) of 16900 ng·h/mL.
